{
  "source": "paper PMC11246995",
  "about": "(Frontiers in Molecular Biosciences, 2024)",
  "key": {"kidney tissues": {"system": "kidney tissues", "test": "MALDI MSI ion intensity of renal endogenous metabolites, rotenone-treated vs untreated kidney", "format": "in vivo, rat", "parameters": "key to Ion Intensity in Rotenone-treated Kidney Tissues: N-Acetylhistidine / Ion Intensity in Rotenone-treated Kidney Tissues: O-Phosphotyrosine / Ion Intensity in Rotenone-treated Kidney Tissues: Adenosine diphosphate / Ion Intensity in Rotenone-treated Kidney Tissues: LysoPC(P-16:0) / Ion Intensity in Rotenone-treated Kidney Tissues: LysoPC(16:1) / Ion Intensity in Rotenone-treated Kidney Tissues: LysoPC(16:0) / Ion Intensity in Rotenone-treated Kidney Tissues: LysoPC(17:0) / Ion Intensity in Rotenone-treated Kidney Tissues: LysoPC(18:2) / Ion Intensity in Rotenone-treated Kidney Tissues: L-carnitine / Ion Intensity in Rotenone-treated Kidney Tissues: LysoPC(18:1) / Ion Intensity in Rotenone-treated Kidney Tissues: LysoPC(20:4) / Ion Intensity in Rotenone-treated Kidney Tissues: Phosphorylcholine / Ion Intensity in Rotenone-treated Kidney Tissues: Adenosine monophosphate / Ion Intensity in Rotenone-treated Kidney Tissues: Creatinine / Ion Intensity in Rotenone-treated Kidney Tissues: Histidine / Ion Intensity in Rotenone-treated Kidney Tissues: Phenylalanine / Ion Intensity in Rotenone-treated Kidney Tissues: 3-methylhistidine / Ion Intensity in Rotenone-treated Kidney Tissues: Arginine: ↑ indicates higher ion intensity level than that of the control group; ↓ indicates lower ion intensity level than that of the control group; *p < 0.05; **p < 0.01; ***p < 0.001", "conditions": "vs control; for Ion intensity in rotenone-treated kidney tissues: Glycero-3-phosphocholine / Ion intensity in rotenone-treated kidney tissues: Inosine / Ion intensity in rotenone-treated kidney tissues: LysoPC(18:0): [M+K]+", "experimental": "Rats were sacrificed 24 h after drug administration, and the kidney and liver organs were immediately removed, flash-frozen with liquid nitrogen, and stored at −80°C in a freezer for long-term storage. The administration and harvesting of organs were conducted by the Pharmalytics Corporation, accredited by the Food and Drug Administration (FDA, Philippines) for bioavailability and bioequivalence research. The animal study was reviewed and approved by the Institutional Animal Care and Use Committee (IACUC) Esteleydes Animal Laboratory and Research Facility and by the Bureau of Animal Industry—Animal Health and Welfare Division in the Philippines.\nTo identify possible metabolic alterations, the m/z values of endogenous compounds found in kidney were extracted from the human metabolome database (http://www.hmdb.ca). The spatial mapping of endogenous compounds was visualized by MALDI HDMS imaging. The detection of metabolite biomarkers was supported by their spatial distribution, normalized ion intensity, m/z accuracy, and similar drift time bins in thin tissues sectioned from the seven identified layers of drug-treated and control rat kidney.\nMALDI HDMS raw data was imported into High-Definition Imaging (HDI) software v1.5 (Waters Corporation, Manchester, United Kingdom). Data processing was performed by detecting 10,000 intense peaks between a mass range of m/z 50–750, a drift time maximum of 200 bins, and a lock mass-based correction at m/z 464.6064. Following data processing, peak picking was carried out and data was normalized based on the total ion current (TIC). The spatial distribution of rotenone and kidney endogenous molecules from the m/z peak list was visualized using the HDI software. […] The tentative identification and assignment of kidney metabolites were based on the metabolites in the human metabolome database (http://www.hmdb.ca). The m/z values and structure of these renal endogenous molecules were verified using PubChem (https://pubchem.ncbi.nlm.nih.gov), ChemDraw Professionals, and by the related literature ([Jung et al., 2016]; [Nizioł et al., 2020]; [Zhu Y. et al., 2022]).\nA multivariate analysis was performed by importing the merged CSV file of processed MALDI image data into EZinfo v3.0 (Waters Corporation, Manchester, United Kingdom). Principal component analysis (PCA) was used to find patterns or trend in the MALDI dataset of the control and drug-treated groups. A peak list of biomolecules was manually created for PCA analysis from the laser-ablated kidney tissue sections. Pareto variance was used to scale the x-variable and to eliminate any bias in this unsupervised algorithm. Similar and far away observations between the dataset were illustrated based on the t[1] and t[2] indices. Meanwhile, the statistical differences between the mass ion intensity of endogenous compounds in two treatment groups were analyzed using the Student’s t-test of GraphPad Prism version 9.4.0 (GraphPad Software Inc., San Diego, CA, United States). The significance threshold was set at p < 0.05 (*), p < 0.01 (**), and p < 0.001 (***)."}, "[1]": {"conditions": "ref Udeani et al., 2001; Organization for Economic Cooperation and Development, 2020; cited from earlier work"}, "[2]": {"test": "Qualitative MALDI MSI with ion mobility: spatial distribution of rotenone and its metabolites in kidney and liver", "format": "in vivo", "conditions": "rat, single oral 2 mg/kg, 24 h"}, "[3]": {"conditions": "rat, single oral 2 mg/kg, 24 h, [M+H]+"}},
  "data": [
    {"smiles": "C=C(C)[C@H]1Cc2c(ccc3c2O[C@@H]2COc4cc(OC)c(OC)cc4[C@@H]2C3=O)O1", "note": "[rotenone, Rotenone]", "values": [
      {"measurement": "Ion Intensity in Rotenone-treated Kidney Tissues: 3-methylhistidine", "setting": "kidney tissues; Table S1, [M+H]+", "result": "↓"},
      {"measurement": "Ion Intensity in Rotenone-treated Kidney Tissues: Adenosine diphosphate", "setting": "kidney tissues; Table S1, [M+H]+", "result": "↑"},
      {"measurement": "Ion Intensity in Rotenone-treated Kidney Tissues: Adenosine monophosphate", "setting": "kidney tissues; Table S1, [M+H]+", "result": "↓"},
      {"measurement": "Ion Intensity in Rotenone-treated Kidney Tissues: Arginine", "setting": "kidney tissues; Table S1, [M+H]+", "result": "↓"},
      {"measurement": "Ion Intensity in Rotenone-treated Kidney Tissues: Creatinine", "setting": "kidney tissues; Table S1, [M+H]+", "result": "↓"},
      {"measurement": "Ion Intensity in Rotenone-treated Kidney Tissues: Histidine", "setting": "kidney tissues; Table S1, [M+H]+", "result": "↑"},
      {"measurement": "Ion Intensity in Rotenone-treated Kidney Tissues: L-carnitine", "setting": "kidney tissues; Table S1, [M+H]+", "result": "↑"},
      {"measurement": "Ion Intensity in Rotenone-treated Kidney Tissues: LysoPC(16:0)", "setting": "kidney tissues; Table S1, [M+H]+", "result": "↓"},
      {"measurement": "Ion Intensity in Rotenone-treated Kidney Tissues: LysoPC(16:1)", "setting": "kidney tissues; Table S1, [M+H]+", "result": "↑"},
      {"measurement": "Ion Intensity in Rotenone-treated Kidney Tissues: LysoPC(17:0)", "setting": "kidney tissues; Table S1, [M+H]+", "result": "↓"},
      {"measurement": "Ion Intensity in Rotenone-treated Kidney Tissues: LysoPC(18:1)", "setting": "kidney tissues; Table S1, [M+H]+", "result": "↑"},
      {"measurement": "Ion Intensity in Rotenone-treated Kidney Tissues: LysoPC(18:2)", "setting": "kidney tissues; Table S1, [M+H]+", "result": "↑"},
      {"measurement": "Ion Intensity in Rotenone-treated Kidney Tissues: LysoPC(20:4)", "setting": "kidney tissues; Table S1, [M+H]+", "result": "↑"},
      {"measurement": "Ion Intensity in Rotenone-treated Kidney Tissues: LysoPC(P-16:0)", "setting": "kidney tissues; Table S1, [M+H]+", "result": "↓"},
      {"measurement": "Ion Intensity in Rotenone-treated Kidney Tissues: N-Acetylhistidine", "setting": "kidney tissues; Table S1, [M+H]+", "result": "↓"},
      {"measurement": "Ion Intensity in Rotenone-treated Kidney Tissues: O-Phosphotyrosine", "setting": "kidney tissues; Table S1, [M+H]+", "result": "↓"},
      {"measurement": "Ion Intensity in Rotenone-treated Kidney Tissues: Phenylalanine", "setting": "kidney tissues; Table S1, [M+H]+", "result": "↓"},
      {"measurement": "Ion intensity in rotenone-treated kidney tissues: Choline", "setting": "kidney tissues; Table S1, [M+H]+", "result": "↓***"},
      {"measurement": "Ion intensity in rotenone-treated kidney tissues: Sphingomyelin (D18:1/16:0)", "setting": "kidney tissues; Table S1, [M+H]+", "result": "↑*"},
      {"measurement": "Ion intensity in rotenone-treated kidney tissues: Glycero-3-phosphocholine", "setting": "kidney tissues; Table S1", "result": "↓*"},
      {"measurement": "Ion intensity in rotenone-treated kidney tissues: Inosine", "setting": "kidney tissues; Table S1", "result": "↓**"},
      {"measurement": "Ion intensity in rotenone-treated kidney tissues: LysoPC(18:0)", "setting": "kidney tissues; Table S1", "result": "↓**"},
      {"measurement": "Ion Intensity in Rotenone-treated Kidney Tissues: Phosphorylcholine", "setting": "kidney tissues; Table S1, [M]+", "result": "↑"},
      {"measurement": "Ion intensity in rotenone-treated kidney tissues: Choline", "setting": "kidney tissues; [3]", "result": "↓***"},
      {"measurement": "Ion intensity in rotenone-treated kidney tissues: Sphingomyelin (D18:1/16:0)", "setting": "kidney tissues; [3]", "result": "↑*"},
      {"measurement": "Ion intensity in rotenone-treated kidney tissues: Glycero-3-phosphocholine", "setting": "kidney tissues; rat, single oral 2 mg/kg, 24 h", "result": "↓*"},
      {"measurement": "Ion intensity in rotenone-treated kidney tissues: Inosine", "setting": "kidney tissues; rat, single oral 2 mg/kg, 24 h", "result": "↓**"},
      {"measurement": "Ion intensity in rotenone-treated kidney tissues: LysoPC(18:0)", "setting": "kidney tissues; rat, single oral 2 mg/kg, 24 h", "result": "↓**"},
      {"measurement": "ion intensity of choline in kidney tissues treated with rotenone", "setting": "kidney tissues; p < 0.001", "result": "significant decrease"},
      {"measurement": "inosine level in treated kidney", "setting": "kidney tissues; p < 0.01", "result": "significant reduction"},
      {"measurement": "ion intensity levels of LysoPC(18:0) in rotenone-treated kidney tissues", "setting": "kidney tissues; p < 0.01", "result": "decreased significantly"},
      {"measurement": "GPC level in drug-treated kidney tissues", "setting": "kidney tissues; p < 0.05", "result": "decreased significantly"},
      {"measurement": "sphingomyelin (D18:1/16:0) level in treated kidney", "setting": "kidney tissues; p < 0.05", "result": "significant increase"},
      {"measurement": "metabolic clearance rate", "setting": "[1]", "result": "approximately 100 mL/min/kg"},
      {"measurement": "biotransformed metabolites of rotenone in kidney tissue sections (MALDI MSI)", "setting": "[2]; kidney", "result": "no biotransformed metabolites of rotenone were detected"},
      {"measurement": "biotransformed metabolites of rotenone in liver tissues (MALDI MSI)", "setting": "[2]; liver", "result": "no biotransformed metabolites"}
    ]}
  ]
}
